The source of these data is patent publication US20260337153A1, “IONIZABLE AMINE LIPIDS” (Intellia Therapeutics, Inc., priority 2023, published 2026).

Read-outs that look alike come from different tables or passages of the source.

Series [1] in a line: pKa of unformulated amine lipid by TNS fluorescence. The series is classed as physicochemical. On the procedure: The pKa of each amine lipid was determined according to the method in Jayaraman, et al. (Angew Chem Int Ed Engl 51(34), 2012, 8529-8533) with the following adaptations. The pKa was determined for unformulated amine lipid in ethanol. Lipid stock solutions (2.94 mM) were diluted into Sodium Phosphate Buffers (0.1 M, Boston Bioproducts) of different pH (pH-range: 4.5-9.0) yielding a final lipid concentration of approx. 100 μM. The test samples were supplemented with TNS {6-(p-Toluidino)-2-naphthalenesulfonic acid sodium salt}, incubated and the fluorescence intensity was measured using excitation and emission wavelengths of 321 nm and 448 nm, respectively. The recorded data were normalized and the respective pKa values were derived from sigmoidal fitting.

Another series deals with rat TTR gene. The experiment in a line: In vivo editing of TTR in rat liver after LNP delivery (NGS, % editing). More on the design: species or system rat (Sprague-Dawley). On the procedure: LNPs were prepared using various amine lipids in a 4-component lipid system consisting of an ionizable lipid (e.g., an amine lipid), DSPC, cholesterol and a PEG lipid (e.g., PEG2K-DMG, C13 Ether, C14 Ether). In assays for percent liver editing in rats, Cas9 mRNA and chemically modified sgRNA targeting a rat sequence were formulated in LNPs, at either a 1:1 w/w ratio or a 1:2 w/w sgRNA:Cas9 mRNA ratio.
The lipid components were dissolved in 100% ethanol with the lipid component molar ratios described below. The chemically modified sgRNA and Cas9 mRNA were combined and dissolved in 25 mM citrate, 100 mM NaCl, pH 5.0, resulting in a concentration of total RNA cargo of approximately 0.45 mg/mL. The LNPs were formulated with an N:P ratio of about 6, with the ratio of chemically modified sgRNA:Cas9 mRNA at either a 1:1 or 1:2 w/w ratio as described below.
The LNPs were formed by an impinging jet mixing of the lipid in ethanol with two volumes of RNA solution and one volume of water. First, the lipid in ethanol is mixed through a mixing cross with the two volumes of RNA solution. Then, a fourth stream of water is mixed with the outlet stream of the cross through an inline tee. (See, e.g., WO2016010840, FIG. 2). The LNPs were held for 1 hour at room temperature, and further diluted with water (approximately 1:1 v/v). Diluted LNPs were buffer exchanged into 50 mM Tris, 45 mM NaCl, 5% (w/v) sucrose, pH 7.5 (TSS) and concentrated as needed by methods known in the art. The resulting mixture was then filtered using a 0.2 μm sterile filter. The final LNP was stored at 4° C. or −80° C. until further use.
Sprague-Dawley female rats, ranging from 6-10 weeks of age were used in each study. Animals were weighed and dosed based on individual body weight measured the morning of dosing. LNPs were dosed via the lateral tail vein in a volume of 2 mL per kilogram of animal body weight. The animals were periodically observed for adverse effects for at least 24 hours post dose.
For studies measuring in vivo editing in liver, Sprague-Dawley female rats were dosed at 0.1 mpk or 0.03 mpk, unless otherwise noted. Animals were euthanized at 6 or 7 days by carbon dioxide asphyxiation and a heart clip or by ex sanguination via cardiac puncture under isoflourane anesthesia. Blood was collected into serum separator tubes. Liver tissue was collected. Genomic DNA was isolated from the liver tissue for editing measurement by Next-Generation Sequencing (NGS).
In brief, to quantitatively determine the efficiency of editing at the target location in the genome, genomic DNA was isolated and deep sequencing was utilized to identify the presence of insertions and deletions introduced by gene editing.
PCR primers were designed around the target site (e.g., TTR), and the genomic area of interest was amplified. Additional PCR was performed according to the manufacturer's protocols (Illumina) to add the necessary chemistry for sequencing. The amplicons were sequenced on an Illumina MiSeq instrument. The reads were aligned to the […] after eliminating those having low quality scores. The resulting files containing the reads were mapped to the reference genome (BAM files), where reads that overlapped the target region of interest were selected and the number of wild type reads versus the number of reads which contain an insertion, substitution, or deletion was calculated.
The editing percentage (e.g., the “indel efficiency” or “percent indels” or “% editing” or “% indel”) can be defined as the total number of sequence reads with insertions or deletions over the total number of sequence reads, including wild type.
In vivo editing efficiency for materials delivered with formulations including various amine lipid (or ionizable lipid) compounds in Experiments 1 through 14 as described in Tables 3 and 4 was assessed. Editing was measured using G000534 (SEQ ID NO: 5) which targets the rat TTR gene. […]

Where [2] appears, read: sodium phosphate buffer, Table 2, unformulated amine lipid, TNS, read-out: Lipid pKa.
The mark [3] stands for this setting: Experiment 14, 0.03 mpk, LNP with C13 Ether.
Where [4] appears, read: Experiment 7, 0.1 mpk, LNP with PEG2K-DMG.

The term pKa denotes the negative logarithm of the acid dissociation constant. For `CCCCC/C=C\C/C=C\CCCCCCCC(=O)OCC(CCCCCCCCC(=O)OC(CCCC)CCCC)COC(=O)OCCCN(CC)CC` (stereo not drawn) [Compound 21, 2-((((3-(diethylamino)propoxy)carbonyl)oxy)methyl)-11-(nonan-5-yloxy)-11-oxoundecyl (9Z,12Z)-octadeca-9,12-dienoate], the pKa in series [1] (setting [2]) worked out at 6.2.
On to `CCCCCCCCC(CCCCCCCC)OC(=O)CCCCCC(=O)OCC(COC(=O)CCCCCC(=O)OC(CCCCCCCC)CCCCCCCC)COC(=O)NCCN(CC)CC` [Compound 38, O′1,O1-(2-((((2-(diethylamino)ethyl)carbamoyl)oxy)methyl)propane-1,3-diyl) 7,7′-di(heptadecan-9-yl) di(heptanedioate)], for which the pKa in series [1] (setting [2]) worked out at 6.56. Also, in the series on rat TTR gene (setting [3]), the Mean % editing stood at 19.4%.
Taken in the same sequence, the figures for `CCCCCCCCC(CCCCCCCC)C(=O)OCCCC(=O)OCC(COC(=O)CCCOC(=O)C(CCCCCCCC)CCCCCCCC)COC(=O)NCCN(CC)CC` [Compound 39, [4-[2-[2-(diethylamino)ethylcarbamoyloxymethyl]-3-[4-(2-octyldecanoyloxy)butanoyloxy]propoxy]-4-oxo-butyl]2-octyldecanoate] were 6.63 and 11.3%.
`CCCCCCCCOC(CCC(=O)OCC(COC(=O)CC(CCCC)CCCCCC)COC(=O)NCCN(CC)CC)OCCCCCCCC` (stereo not drawn) [Compound 44, 3-((4,4-bis(octyloxy)butanoyl)oxy)-2-((((2-(diethylamino)ethyl)carbamoyl)oxy)methyl)propyl 3-butylnonanoate] gave a Mean % editing with rat TTR gene (setting [4]) of 59.8%.
Still for that read-out and setting: then `CCCCCCCCOC(CCC(=O)OCC(COC(=O)CCCCCCCC)COC(=O)OCCCN(CC)CC)OCCCCCCCC` (stereo not drawn) [Compound 45, 3-((4,4-bis(octyloxy)butanoyl)oxy)-2-((((3-(diethylamino)propoxy)carbonyl)oxy)methyl)propyl Nonanoate], with 1.8%; and `CCCCCCCCOC(CCC(=O)OCC(COC(=O)CCCCCCCC)COC(=O)NCCN(CC)CC)OCCCCCCCC` (stereo not drawn) [Compound 46, 3-((4,4-bis(octyloxy)butanoyl)oxy)-2-((((2-(diethylamino)ethyl)carbamoyl)oxy)methyl)propyl Nonanoate], with 0.2%; and `CCCCCCCCOC(CCC(=O)OCC(COC(=O)OCCCN(CC)CC)COC(=O)C(CCCC)CCCCCC)OCCCCCCCC` (stereo not drawn) [Compound 47, 3-((4,4-bis(octyloxy)butanoyl)oxy)-2-((((3-(diethylamino)propoxy)carbonyl)oxy)methyl)propyl 2-butyloctanoate], with 56.3%.
In the series on rat TTR gene (Table 8, 0.03 mpk, LNP with C13 Ether), `CCCCC/C=C\C/C=C\CCCCCCCC(=O)OCC(COC(=O)CCCC(=O)OC(CCCCCCCC)CCCCCCCC)COC(=O)OCC1CCCN(CC)C1` (stereo not drawn) [Compound 62, 3-((((1-ethylpiperidin-3-yl)methoxy)carbonyl)oxy)-2-((((9Z,12Z)-octadeca-9,12-dienoyl)oxy)methyl)propyl heptadecan-9-yl glutarate] came in with a Mean % editing of 28.0%.
As to `CCCCCCCCC(CCCCCCCC)OC(=O)CCCCC(=O)OCC(COC(=O)CCCCC(=O)OC(CCCCCCCC)CCCCCCCC)COC(=O)OCCCN1CCCC1` [Compound 69, di(heptadecan-9-yl) O,O′-(2-((((3-(pyrrolidin-1-yl)propoxy)carbonyl)oxy)methyl)propane-1,3-diyl) diadipate], the pKa in series [1] (read-out: pKa) came out at 6.4. Also, in the series with rat TTR gene (NGS, dose 0.03 mpk, LNP with G000534 sgRNA and Cas9 mRNA 1:2 w/w, 3% C13 Ether (Compound 53: 3% PEG2K-DMG), N=5 (Compound 33: N=4)), the “Mean % editing in rat liver” value is 7.3%.
